Measured values published in paper PMC7504092, “Synthesis and Antiplasmodial Evaluation of 4-Carboxamido- and 4-Alkoxy-2-Trichloromethyl Quinazolines” (Molecules, 2020).

Tested on: K1 P. falciparum strain
Assay: In vitro antiplasmodial evaluation (SYBR Green I fluorescence-based method)
Type: cell-based
Details: CC50 HepG2 / EC50 PfK1
Method: It was maintained in continuous culture as described previously by Trager and Jensen. […] Parasitemia was maintained daily at between 1 and 3%. The P. falciparum drug susceptibility test was carried out by comparing quantities of DNA in treated and control cultures of parasite in human erythrocytes according to an SYBR Green I fluorescence-based method using a 96-well fluorescence plate reader. […] Duplicate assays were performed for each sample. After incubation, plates were frozen at -20 °C for 24 h. […] Fifteen μL of each sample were transferred to 96-well flat bottom non-sterile black plates (Greiner Bio-one) already containing 15 μL of the SYBR Green I lysis buffer (2X SYBR Green I, 20 mM Tris base pH 7.5, 20 mM EDTA, 0.008% w/v saponin, 0.08% w/v Triton X-100).
With COCCOc1nc(C(Cl)(Cl)Cl)nc2ccccc12 [Molecule 35, 4-(2-Methoxyethoxy)-2-Trichloromethylquinazoline] the “SI (selectivity index = CC50/EC50)” value was 23.1. With ClCCOc1nc(C(Cl)(Cl)Cl)nc2ccccc12 [Molecule 36, 4-(2-Chloroethoxy)-2-Trichloromethylquinazoline] the “SI (selectivity index = CC50/EC50)” value was greater than 28. For ClCCCOc1nc(C(Cl)(Cl)Cl)nc2ccccc12 [Molecule 37, 4-(3-Chloropropoxy)-2-Trichloromethylquinazoline], the “SI (selectivity index = CC50/EC50)” value was 14.4. In the case of FCCOc1nc(C(Cl)(Cl)Cl)nc2ccccc12 [Molecule 39, 4-(2-Fluoroethoxy)-2-Trichloromethylquinazoline], the “SI (selectivity index = CC50/EC50)” value is reported as 3.7. With ClC(Cl)(Cl)c1nc(OCCBr)c2ccccc2n1 [Molecule 40, 4-(2-Bromoethoxy)-2-Trichloromethylquinazoline] the “SI (selectivity index = CC50/EC50)” value was greater than 28. With CC(=O)NCCOc1nc(C(Cl)(Cl)Cl)nc2ccccc12 [Molecule 42, N-{2-[(2-Trichloromethylquinazolin-4-yl)oxy]ethyl}acetamide] the “SI (selectivity index = CC50/EC50)” value was greater than 30.

Same assay, conditions: Plasmodium falciparum, K1, 72 h, multi-resistant K1 P. falciparum strain, 72 h incubation; read-out: PfK1 EC50
With O=C(Nc1nc(C(Cl)(Cl)Cl)nc2ccccc12)c1ccccc1F [Molecule 11, 2-Fluoro-N-(2-Trichloromethylquinazolin-4-yl)benzamide] the EC50 was 5.23 µM. CC(=O)Nc1nc(C(Cl)(Cl)Cl)nc2ccccc12 [Molecule 20, N-(2-Trichloromethylquinazolin-4-yl)acetamide] showed an EC50 greater than 10 µM. Work on CCCCC(=O)Nc1nc(C(Cl)(Cl)Cl)nc2ccccc12 [Molecule 24, N-(2-Trichloromethylquinazolin-4-yl)pentanamide] yielded an EC50 of no more than 2 µM. With COCCOc1nc(C(Cl)(Cl)Cl)nc2ccccc12 [Molecule 35, 4-(2-Methoxyethoxy)-2-Trichloromethylquinazoline] the EC50 was 2.3 µM. Compound ClCCOc1nc(C(Cl)(Cl)Cl)nc2ccccc12 [Molecule 36, 4-(2-Chloroethoxy)-2-Trichloromethylquinazoline] has an EC50 of 2.2 µM. ClCCCOc1nc(C(Cl)(Cl)Cl)nc2ccccc12 [Molecule 37, 4-(3-Chloropropoxy)-2-Trichloromethylquinazoline] showed an EC50 of 4.2 µM. FCCOc1nc(C(Cl)(Cl)Cl)nc2ccccc12 [Molecule 39, 4-(2-Fluoroethoxy)-2-Trichloromethylquinazoline] gave an EC50 of 8 µM. Compound ClC(Cl)(Cl)c1nc(OCCBr)c2ccccc2n1 [Molecule 40, 4-(2-Bromoethoxy)-2-Trichloromethylquinazoline] has an EC50 of 2.2 µM. Compound CC(=O)NCCOc1nc(C(Cl)(Cl)Cl)nc2ccccc12 [Molecule 42, N-{2-[(2-Trichloromethylquinazolin-4-yl)oxy]ethyl}acetamide] has an EC50 of 3.3 µM.

Same assay, conditions: Plasmodium falciparum, K1; Figures 2 and 3; read-out: IC50 P. falci. K1
In the case of CCN(CC)CCOc1nc(C(Cl)(Cl)Cl)nc2ccccc12 [Molecule 41, N,N-Diethyl-2-[(2-Trichloromethylquinazolin-4-yl)oxy]ethanamine], the IC50 is reported as 0.9 µM.

Same assay, conditions: multi-resistant K1 P. falciparum strain, 72 h incubation; read-out: PfK1 EC50
For CCCCC(=O)Nc1nc(C(Cl)(Cl)Cl)nc2ccccc12 [Molecule 24, N-(2-Trichloromethylquinazolin-4-yl)pentanamide], the EC50 was 1.6 µM.

Tested on: not listed separately
Assay: Solubility of the tested molecule in the culture medium
Type: physicochemical
Details: culture medium of the cytotoxicity test
Method: HepG2 cell line was maintained at 37 °C, 5% CO2, at 90% humidity in […] supplemented with 10% fetal bovine serum, 1% L-glutamine (200 mM) and penicillin (100 U/mL)/streptomycin (100 µg/mL) (complete RPMI medium). The cytotoxicity of the tested molecules on the HepG2 (hepatocarcinoma cell line purchased from ATCC, ref HB-8065) cell line was assessed according to the method of Mosmann with slight modifications. Briefly, 5.10^3 cells in 100 µL of complete medium were inoculated into each well of 96-well plates and incubated at 37 °C in humidified 5% CO2. After 24 h incubation, 100 μL of medium with various product concentrations dissolved in DMSO (final concentration less than 0.5% v/v) were added and the plates were incubated for 72 h at 37 °C. Triplicate assays were performed for each sample. Each plate-well was then microscope-examined for possible precipitate formation before the medium was aspirated from the wells. 100 μL of MTT (3-(4,5-dimethyl-2-thiazolyl)-2,5-diphenyl-2H-tetrazolium bromide) solution (0.5 mg/mL in medium without FBS) were then added to each well. Cells were incubated for 2 h at 37 °C. After this time, the MTT solution was removed and DMSO (100 μL) was added to dissolve the resulting blue formazan crystals. Plates were shaken vigorously (700 rpm) for 10 min. The absorbance was measured at 570 nm with 630 nm as reference wavelength using a BIO-TEK ELx808 Absorbance Microplate Reader (LabX, Midland, ON, Canada). DMSO was used as blank and doxorubicin (purchased from Sigma Aldrich) as positive control. Cell viability was calculated as percentage of control (cells incubated without compound). […] CC50 values represent the mean value calculated from three independent experiments.
In the case of O=C(Nc1nc(C(Cl)(Cl)Cl)nc2ccccc12)c1ccccc1F [Molecule 11, 2-Fluoro-N-(2-Trichloromethylquinazolin-4-yl)benzamide], the “solubility (in words)” value is reported as “lack of solubility”. With CC(=O)Nc1nc(C(Cl)(Cl)Cl)nc2ccccc12 [Molecule 20, N-(2-Trichloromethylquinazolin-4-yl)acetamide] the “solubility (in words)” value was “lack of solubility”. With CCCCC(=O)Nc1nc(C(Cl)(Cl)Cl)nc2ccccc12 [Molecule 24, N-(2-Trichloromethylquinazolin-4-yl)pentanamide] the “solubility (in words)” value was “lack of solubility”.

Tested on: not listed separately
Assay: In vitro cytotoxicity evaluation (MTT)
Type: cell-based
Details: human
Method: Triplicate assays were performed for each sample. Each plate-well was then microscope-examined for possible precipitate formation before the medium was aspirated from the wells. 100 μL of MTT (3-(4,5-dimethyl-2-thiazolyl)-2,5-diphenyl-2H-tetrazolium bromide) solution (0.5 mg/mL in medium without FBS) were then added to each well. […] After this time, the MTT solution was removed and DMSO (100 μL) was added to dissolve the resulting blue formazan crystals. Plates were shaken vigorously (700 rpm) for 10 min. The absorbance was measured at 570 nm with 630 nm as reference wavelength using a BIO-TEK ELx808 Absorbance Microplate Reader (LabX, Midland, ON, Canada). DMSO was used as blank and doxorubicin (purchased from Sigma Aldrich) as positive control. Cell viability was calculated as percentage of control (cells incubated without compound). […] CC50 values represent the mean value calculated from three independent experiments.
For O=C(Nc1nc(C(Cl)(Cl)Cl)nc2ccccc12)c1ccccc1F [Molecule 11, 2-Fluoro-N-(2-Trichloromethylquinazolin-4-yl)benzamide], the CC50 at 72 h was greater than 15.6 µM. CC(=O)Nc1nc(C(Cl)(Cl)Cl)nc2ccccc12 [Molecule 20, N-(2-Trichloromethylquinazolin-4-yl)acetamide] gave a CC50 at 72 h of 31.2 µM. For CCCCC(=O)Nc1nc(C(Cl)(Cl)Cl)nc2ccccc12 [Molecule 24, N-(2-Trichloromethylquinazolin-4-yl)pentanamide], the CC50 at 72 h was 42.3 µM. In the case of COCCOc1nc(C(Cl)(Cl)Cl)nc2ccccc12 [Molecule 35, 4-(2-Methoxyethoxy)-2-Trichloromethylquinazoline], the CC50 at 72 h is reported as 53.2 µM. ClCCOc1nc(C(Cl)(Cl)Cl)nc2ccccc12 [Molecule 36, 4-(2-Chloroethoxy)-2-Trichloromethylquinazoline] showed a CC50 at 72 h greater than 62.5 µM. ClCCCOc1nc(C(Cl)(Cl)Cl)nc2ccccc12 [Molecule 37, 4-(3-Chloropropoxy)-2-Trichloromethylquinazoline] showed a CC50 at 72 h of 60.4 µM. FCCOc1nc(C(Cl)(Cl)Cl)nc2ccccc12 [Molecule 39, 4-(2-Fluoroethoxy)-2-Trichloromethylquinazoline] showed a CC50 at 72 h of 29.5 µM. ClC(Cl)(Cl)c1nc(OCCBr)c2ccccc2n1 [Molecule 40, 4-(2-Bromoethoxy)-2-Trichloromethylquinazoline] showed a CC50 at 72 h greater than 62.5 µM. For CCN(CC)CCOc1nc(C(Cl)(Cl)Cl)nc2ccccc12 [Molecule 41, N,N-Diethyl-2-[(2-Trichloromethylquinazolin-4-yl)oxy]ethanamine], the CC50 at 72 h was 32.3 µM. Work on CC(=O)NCCOc1nc(C(Cl)(Cl)Cl)nc2ccccc12 [Molecule 42, N-{2-[(2-Trichloromethylquinazolin-4-yl)oxy]ethyl}acetamide] yielded a CC50 at 72 h greater than 99.7 µM.

Tested on: not given
Assay: not given
Details: not given
CC(=O)Nc1nc(C(Cl)(Cl)Cl)nc2ccccc12 [Molecule 20, N-(2-Trichloromethylquinazolin-4-yl)acetamide] gave a melting point of 217 °C. Compound CCCCC(=O)Nc1nc(C(Cl)(Cl)Cl)nc2ccccc12 [Molecule 24, N-(2-Trichloromethylquinazolin-4-yl)pentanamide] has a melting point of 136 °C. Work on COCCOc1nc(C(Cl)(Cl)Cl)nc2ccccc12 [Molecule 35, 4-(2-Methoxyethoxy)-2-Trichloromethylquinazoline] yielded a melting point of 63 °C. For ClCCOc1nc(C(Cl)(Cl)Cl)nc2ccccc12 [Molecule 36, 4-(2-Chloroethoxy)-2-Trichloromethylquinazoline], the melting point was 54 °C. With ClCCCOc1nc(C(Cl)(Cl)Cl)nc2ccccc12 [Molecule 37, 4-(3-Chloropropoxy)-2-Trichloromethylquinazoline] the melting point was 77 °C. With FCCOc1nc(C(Cl)(Cl)Cl)nc2ccccc12 [Molecule 39, 4-(2-Fluoroethoxy)-2-Trichloromethylquinazoline] the melting point was 73 °C. With ClC(Cl)(Cl)c1nc(OCCBr)c2ccccc2n1 [Molecule 40, 4-(2-Bromoethoxy)-2-Trichloromethylquinazoline] the melting point was 100 °C. Work on CCN(CC)CCOc1nc(C(Cl)(Cl)Cl)nc2ccccc12 [Molecule 41, N,N-Diethyl-2-[(2-Trichloromethylquinazolin-4-yl)oxy]ethanamine] yielded a melting point of 137 °C. With CC(=O)NCCOc1nc(C(Cl)(Cl)Cl)nc2ccccc12 [Molecule 42, N-{2-[(2-Trichloromethylquinazolin-4-yl)oxy]ethyl}acetamide] the melting point was 135 °C.
